Results from ChEMBL document CHEMBL6092217 (Eur J Med Chem, 2024).

How the values were obtained:
HT-29 [1] = assay: Antiproliferative activity against human HT-29 cells assessed as cell viability incubated for 72 hrs by MTT assay; type: functional, cell-based; conditions: HT-29, 72 h
MDA-MB-231 = assay: cells; conditions: Homo sapiens, MDA-MB-231, 72 h
Description: Antiproliferative activity against human MDA-MB-231 cells assessed as cell viability incubated for 72 hrs by MTT assay

PC-3 = assay: Antiproliferative activity against human PC-3 cells assessed as cell viability incubated for 72 hrs by MTT assay; type: functional, cell-based; conditions: PC-3, 72 h
HT-29 [2] = assay: Induction of apoptosis in human HT-29 cells assessed as late apoptotic cells at 20 nM incubated for 24 hrs by FITC/PI staining based flow cytometry analysis (reference value: 0.20%); type: functional
HT-29 [3] = assay: Induction of apoptosis in human HT-29 cells assessed as viable cells at 20 nM incubated for 24 hrs by FITC/PI staining based flow cytometry analysis (reference value: 91.6%); type: functional; conditions: read-out: Activity
RKO = assay: Antiproliferative activity against human RKO cells assessed as cell viability incubated for 72 hrs by MTT assay; type: functional, cell-based
HT-29 [4] = assay: Induction of cell cycle arrest in human HT-29 cells assessed as accumulation of cells at G2 phase at 10 nM incubated for 24 hrs by flow cytometry analysis (reference value: 13 %); type: functional
MCF7 = assay: Antiproliferative activity against human MCF7 cells assessed as cell viability incubated for 72 hrs by MTT assay; type: functional, cell-based; conditions: MCF7, 72 h
HepG2 = assay: Antiproliferative activity against human HepG2 cells assessed as cell viability incubated for 72 hrs by MTT assay; type: functional, cell-based; conditions: HepG2, 72 h
[5] = Resistance index, ratio of IC50 for human A549/TxR cells to IC50 for human A549 cells; type: functional
HT-29 [6] = assay: Induction of cell cycle arrest in human HT-29 cells assessed as accumulation of cells at S phase at 10 nM incubated for 24 hrs by flow cytometry analysis (reference value: 20.8 %); type: functional
HT-29 [7] = assay: Induction of cell cycle arrest in human HT-29 cells assessed as accumulation of cells at G1 phase at 10 nM incubated for 24 hrs by flow cytometry analysis (reference value: 67.6%); type: functional
HT-29 [8] = assay: Induction of apoptosis in human HT-29 cells assessed as early apoptotic cells at 20 nM incubated for 24 hrs by FITC/PI staining based flow cytometry analysis (reference value: 8.14%); type: functional
HT-29 [9] = assay: Induction of apoptosis in human HT-29 cells assessed as necrotic cells at 20 nM incubated for 24 hrs by FITC/PI staining based flow cytometry analysis (reference value: 0.017 %); type: functional
[10] = Binding affinity to porcine brain tubulin assessed as dissociation constant measured after 20 mins by fluorescence based analysis; design: species or system Sus scrofa
Tubulin = assay: Inhibition of tubulin polymerization (unknown origin) in presence of GTP by fluorescence plate reader analysis; type: protein-complex assay, Homo sapiens

| SMILES | IC50 (HT-29 [1]) | IC50 (MDA-MB-231) | IC50 (PC-3) | Activity (HT-29 [2]) | viability at 0.02 µM (HT-29 [3]) | IC50 (RKO) | Activity (HT-29 [4]) | IC50 (MCF7) | IC50 (HepG2) | Ratio IC50 [5] | Activity (HT-29 [6]) | Activity (HT-29 [7]) | Activity (HT-29 [8]) | Activity (HT-29 [9]) | Kd [10] | IC50 (Tubulin) |
| --- | --- | --- | --- | --- | --- | --- | --- | --- | --- | --- | --- | --- | --- | --- | --- | --- |
| CC(=O)O[C@H]1C(=O)[C@@]2(C)[C@H]([C@H](OC(=O)c3ccccc3)[C@]3(O)C[C@H](OC(=O)[C@H](O)[C@@H](NC(=O)c4ccccc4)c4ccccc4)C(C)=C1C3(C)C)[C@]1(OC(C)=O)CO[C@@H]1C[C@@H]2O [PACLITAXEL] | 13 nM | 22 nM | 28 nM | 22.7% | 70.6% | 3 nM | 22.6% | 37 nM | 36 nM | 11.29 | 15.1% | 60.2% | 5.4% | 1.32% |  |  |
| COc1ccc(N(C)c2nc(/C=C/c3ccc(OC)cc3OC)nc3ccccc23)cc1 | 47 nM | 240 nM | 110 nM |  |  | 120 nM |  | 140 nM | 220 nM |  |  |  |  |  | 43.3 µM | > 10 µM |
| CN(c1ccc2c(c1)OCCO2)c1nc(/C=C/c2ccccc2)nc2ccccc12 | 670 nM | 2060 nM | 1460 nM |  |  | 410 nM |  | 320 nM | 3440 nM |  |  |  |  |  |  |  |
| COc1ccc(N(C)c2nc(/C=C/c3cccc(Br)c3)nc3ccccc23)cc1 | > 10000 nM | 9860 nM | 7380 nM |  |  | > 10000 nM |  | > 10000 nM | > 10000 nM |  |  |  |  |  |  |  |
| COc1ccc(N(C)c2nc(/C=C/c3ccccc3)nc3ccccc23)cc1 | 250 nM | 1360 nM | 340 nM |  |  | 250 nM |  | 230 nM | 1190 nM |  |  |  |  |  |  |  |
